Data published in the supplement of paper PMC10307832.

Tests used:
[1] = compound: Cc1ccc2nc(NCCN)c3ncc(C)n3c2c1; assay: relative viability (nuclei count vs DMSO), 5 days (fraction); higher = more cells survive
In short: (§1)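 Only plates meeting two conditions passed: control CV below 25% and at least one doubling. Lung cancer cell lines, kept overnight at 37 °C in 1536-well plates, were pinned with five library-drug doses (not always all listed) √10 apart on vehicle-anchored plates and grown 5 days without medium change. A one-step fix, permeabilisation and Hoechst stain preceded 4× imaging and MetaXpress nuclear counting. Viability equals treated-well nuclei divided by vehicle-well nuclei, as the median over plates.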

Salubrinal = compound: O=C(/C=C/c1ccccc1)NC(NC(=S)Nc1cccc2cccnc12)C(Cl)(Cl)Cl [Salubrinal]; assay: as above
In short: as §1

Cell Line | relative viability ([1]; 0.04 µM) | relative viability ([1]; 0.1265 µM) | relative viability ([1]; 0.4 µM) | relative viability ([1]; 1.265 µM) | relative viability ([1]; 4 µM) | relative viability (Salubrinal; 0.08 µM) | relative viability (Salubrinal; 0.253 µM) | relative viability (Salubrinal; 0.8 µM) | relative viability (Salubrinal; 2.53 µM) | relative viability (Salubrinal; 8 µM)
201T | 1.03 | 0.993 | 0.978 | 1.04 | 0.948 | 1.03 | 0.869 | 1.12 | 1.02 | 0.983
A549 | 1.09 | 0.927 | 1.01 | 0.958 | 0.879 | 1.2 | 0.855 | 1.03 | 0.99 | 0.924
A-427 | 1.01 | 1.01 | 0.968 | 1.05 | 0.95 | 1.06 | 0.973 | 1.12 | 0.965 | 1.08
ABC-1 | 0.987 | 1.01 | 0.97 | 1.04 | 0.822 | 0.978 | 0.909 | 0.902 | 1.01 | 0.849
BEN | 1.07 | 0.931 | 0.93 | 1.03 | 1.04 | 1.07 | 0.961 | 1.07 | 1.15 | 0.976
CAL-12T | 0.984 | 0.981 | 0.976 | 1.02 | 0.91 | 1.09 | 0.956 | 1.08 | 1.03 | 0.888
COR-L23 | 1.05 | 1.04 | 0.964 | 0.994 | 0.994 | 1.11 | 1.1 | 1.06 | 0.966 | 0.95
COR-L 105 | 0.997 | 0.864 | 0.955 | 1.05 | 0.801 | 0.93 | 0.895 | 0.94 | 0.88 | 0.83
Calu-6 | 1.03 | 0.986 | 0.974 | 1.02 | 0.854 | 1.17 | 0.925 | 1.01 | 0.981 | 0.936
ChaGo-K-1 | 0.958 | 1.01 | 1.05 | 1.01 | 0.874 | 1.05 | 0.912 | 1.15 | 1.01 | 0.922
EBC-1 | 1.08 | 0.976 | 0.934 | 0.946 | 0.79 | 1.02 | 0.923 | 1.12 | 0.887 | 0.902
EKVX | 1.07 | 0.889 | 0.992 | 0.948 | 0.826 | 1.04 | 0.837 | 1.01 | 1.06 | 1.04
EMC-BAC-2 | 1 | 1 | 0.966 | 1.08 | 0.946 | 0.934 | 1.06 | 1.25 | 0.996 | 0.973
EPLC-272H | 1.01 | 1.13 | 0.992 | 1 | 0.835 | 0.917 | 0.884 | 1.07 | 0.98 | 0.765
H3255 | 1.02 | 0.9 | 0.886 | 1.06 | 0.843 | 1.07 | 0.965 | 1.11 | 0.958 | 0.949
HARA | 0.913 | 0.956 | 0.928 | 0.843 | 0.973 | 1 | 0.956 | 1.02 | 0.908 | 1.17
HCC-15 | 1 | 1.09 | 0.907 | 0.916 | 0.86 | 1.13 | 0.93 | 1.14 | 1.08 | 0.963

Cell Line | relative viability ([1]; 0.04 µM) | relative viability ([1]; 0.1265 µM) | relative viability ([1]; 0.4 µM) | relative viability ([1]; 1.265 µM) | relative viability ([1]; 4 µM) | relative viability (Salubrinal; 0.08 µM) | relative viability (Salubrinal; 0.253 µM) | relative viability (Salubrinal; 0.8 µM) | relative viability (Salubrinal; 2.53 µM) | relative viability (Salubrinal; 8 µM)
HCC-44 | 0.976 | 0.945 | 0.963 | 0.972 | 0.914 | 0.952 | 0.97 | 1.07 | 1.02 | 0.973
HCC-78 | 1.08 | 0.979 | 0.919 | 0.943 | 0.826 | 1.03 | 0.937 | 1.27 | 0.949 | 0.891
HCC-366 | 1.03 | 1.04 | 1.05 | 0.98 | 0.992 | 1.09 | 0.915 | 1.04 | 1.01 | 1.04
HCC-827 | 1.07 | 1.04 | 1.02 | 1.04 | 1.05 | 1.04 | 1.07 | 1.01 | 1.01 | 1.03
HOP-62 | 0.97 | 1 | 0.827 | 1.04 | 0.984 | 1.01 | 0.981 | 1.11 | 1.06 | 0.98
IA-LM | 0.989 | 0.984 | 0.761 | 0.756 | 0.743 | 0.983 | 0.9 | 1.15 | 0.903 | 0.922
LC-2-ad | 0.991 | 1.01 | 0.911 | 1.03 | 0.965 | 1.01 | 0.921 | 1.13 | 0.99 | 0.93
LCLC-97TM1 | 1.07 | 0.934 | 0.978 | 1.04 | 0.899 | 1.07 | 1.06 | 1.21 | 0.992 | 1.11
LCLC-103H | 1 | 0.974 | 0.918 | 1.08 | 0.955 | 1.07 | 0.932 | 1.05 | 1.09 | 0.935
LK-2 | 0.961 | 0.928 | 0.881 | 0.979 | 1.03 | 1.08 | 1.01 | 1.27 | 1.16 | 1
LOU-NH91 | 1.01 | 0.961 | 0.949 | 0.979 | 0.901 | 0.985 | 0.976 | 1.04 | 0.983 | 0.937
LU99A | 1.07 | 0.904 | 0.986 | 0.961 | 0.839 | 1.07 | 0.862 | 1.03 | 0.9 | 0.898
LXF-289 | 0.985 | 0.966 | 1.01 | 1.01 | 1.02 | 1.04 | 0.945 | 1.01 | 0.995 | 0.975
NCI-H23 | 1.06 | 1.11 | 0.853 | 1.09 | 0.907 | 1.11 | 0.858 | 1.18 | 0.995 | 1.08
NCI-H322M | 0.983 | 0.915 | 0.988 | 0.987 | 0.996 | 1.01 | 0.869 | 0.963 | 0.988 | 0.811
NCI-H358 | 0.988 | 1.01 | 0.933 | 1.07 | 0.919 | 1.06 | 1.02 | 1.09 | 0.908 | 0.795
NCI-H441 | 1.1 | 1.05 | 1.09 | 1.11 | 0.964 | 1.25 | 1.02 | 1.34 | 1.03 | 0.784
